Assay results from the supplement of paper PMC13380429.

Experiments:
Details in all cases: 72 h
Caco-2 [1] = assay: cell viability relative to DMSO; higher = less toxic
HepG2 [2] = assay: as above
U2OS [3] = assay: as above
Vero E6 [4] = assay: as above
Caco-2 [5] = assay: relative viability EC50 (midpoint between 100% and the lowest measured viability); higher = less toxic
HepG2 [6] = assay: as above
U2OS [7] = assay: as above
Vero E6 [8] = assay: as above
Caco-2 [9] = assay: drug sensitivity score (DSS) for viability; higher = more toxic; extreme values may be limits of the assay
HepG2 [10] = assay: as above
U2OS [11] = assay: as above
Vero E6 [12] = assay: as above
Calu-3 [13] = assay: cell viability relative to DMSO; higher = less toxic
Calu-3 [14] = assay: drug sensitivity score (DSS) for viability; higher = more toxic; extreme values may be limits of the assay
Calu-3 [15] = assay: relative viability EC50 (midpoint between 100% and the lowest measured viability); higher = less toxic

Structure (SMILES) | cell viability (Caco-2 [1]; 1 nM) [%] | cell viability (Caco-2 [1]; 10 nM) [%] | cell viability (Caco-2 [1]; 100 nM) [%] | cell viability (Caco-2 [1]; 1000 nM) [%] | cell viability (Caco-2 [1]; 10000 nM) [%] | cell viability (HepG2 [2]; 1 nM) [%] | cell viability (HepG2 [2]; 10 nM) [%] | cell viability (HepG2 [2]; 100 nM) [%] | cell viability (HepG2 [2]; 1000 nM) [%] | cell viability (HepG2 [2]; 10000 nM) [%] | cell viability (U2OS [3]; 1 nM) [%] | cell viability (U2OS [3]; 10 nM) [%] | cell viability (U2OS [3]; 100 nM) [%] | cell viability (U2OS [3]; 1000 nM) [%] | cell viability (U2OS [3]; 10000 nM) [%] | cell viability (Vero E6 [4]; 1 nM) [%] | cell viability (Vero E6 [4]; 10 nM) [%] | cell viability (Vero E6 [4]; 100 nM) [%] | cell viability (Vero E6 [4]; 1000 nM) [%] | cell viability (Vero E6 [4]; 10000 nM) [%] | relative viability EC50 (Caco-2 [5]) [µM] | relative viability EC50 (HepG2 [6]) [µM] | relative viability EC50 (U2OS [7]) [µM] | relative viability EC50 (Vero E6 [8]) [µM] | drug sensitivity score (Caco-2 [9]) | drug sensitivity score (HepG2 [10]) | drug sensitivity score (U2OS [11]) | drug sensitivity score (Vero E6 [12]) | cell viability (Calu-3 [13]; 1 nM) [%] | cell viability (Calu-3 [13]; 10 nM) [%] | cell viability (Calu-3 [13]; 100 nM) [%] | cell viability (Calu-3 [13]; 1000 nM) [%] | cell viability (Calu-3 [13]; 10000 nM) [%] | drug sensitivity score (Calu-3 [14]) | relative viability EC50 (Calu-3 [15]) [µM]
C[C@@H](O)[C@H]1C(=O)N2C(C(=O)[O-])=C(SC3Cn4cnc[n+]4C3)[C@H](C)[C@H]12 (stereo partly specified) [biapenem] | 86.6 | 104 | 96.3 | 93.3 | 97.3 | 97.1 | 98 | 93.3 | 90.7 | 95.2 | 98.6 | 104 | 96.3 | 97.1 | 100 | 98.1 | 100 | 94.7 | 103 | 99.8 | > 10 | > 10 | > 10 | > 10 | 0 | 0 | 0 | 0 | – | – | – | – | – | – | –
CC(C)CCC[C@@H](C)[C@H]1CC[C@H]2[C@@H]3CC=C4C[C@@H](O)CC[C@]4(C)[C@H]3CC[C@]12C [cholesterol] | 89.4 | 92.1 | 102 | 90.4 | 98.9 | 92.6 | 97.4 | 91.6 | 106 | 104 | 102 | 93.3 | 98.2 | 94 | 100 | 97.1 | 98.2 | 92.2 | 97.6 | 107 | > 10 | > 10 | > 10 | > 10 | 0 | 0 | 0 | 0 | – | – | – | – | – | – | –
CN(C)NC(=O)CCC(=O)O [daminozide] | 93.5 | 96.3 | 96.5 | 98.3 | 100 | 103 | 96.4 | 102 | 102 | 103 | 97.8 | 97.8 | 95 | 101 | 101 | 94.6 | 98.2 | 97.1 | 98.3 | 103 | > 10 | > 10 | > 10 | > 10 | 0 | 0 | 0 | 0 | – | – | – | – | – | – | –
CC[C@@](C)(Nc1ccnc(-c2c[nH]c3ncccc23)n1)C(=O)NCC(F)(F)F [decernotinib] | 97.4 | 97.3 | 99 | 95.4 | 109 | 94.2 | 101 | 96.6 | 107 | 109 | 96.5 | 101 | 94.2 | 98.3 | 98 | 100 | 100 | 105 | 99.1 | 107 | > 10 | > 10 | > 10 | > 10 | 0 | 0 | 0 | 0 | – | – | – | – | – | – | –
O=C(O)c1ccc(-n2nc(-c3ccccc3O)nc2-c2ccccc2O)cc1 [deferasirox] | 110 | 92.5 | 104 | 96 | 58.8 | 110 | 93.2 | 106 | 91.6 | 31.3 | 103 | 102 | 99 | 93.5 | 47.1 | 104 | 104 | 106 | 101 | 56.9 | – | 2.17 | 2.16 | – | 2.7 | 5.2 | 3.9 | 2.1 | 99.7 | 100 | 97.4 | 104 | 72.2 | 0.9 | –
Clc1ccc(C(Cn2ccnc2)OCc2ccc(Sc3ccccc3)cc2)c(Cl)c1 (stereo unspecified) [fenticonazole] | 102 | 94.8 | 95 | 91.3 | 73.3 | 116 | 108 | 114 | 110 | 68.5 | 101 | 97.8 | 100 | 99.1 | 96 | 109 | 108 | 106 | 107 | 97.8 | – | – | > 10 | > 10 | 1.7 | 1 | 0 | 0 | 100 | 88.6 | 97 | 101 | 85.7 | 0.1 | > 10
CC(C)n1c(/C=C/[C@@H](O)C[C@@H](O)CC(=O)O)c(-c2ccc(F)cc2)c2ccccc21 [fluvastatin] | 92.4 | 103 | 101 | 89.1 | 80 | 97 | 104 | 99.2 | 90.7 | 71.3 | 99.6 | 109 | 95.7 | 101 | 45.1 | 100 | 100 | 103 | 91.2 | 37.5 | > 10 | – | 3.24 | 2.05 | 1.7 | 2.5 | 2.9 | 4.9 | 99 | 96.7 | 96.6 | 105 | 65.4 | 1.3 | –
COc1c2occc2c(OC)c2c(=O)cc(C)oc12 [khellin] | 97.1 | 110 | 94.9 | 107 | 102 | 96.2 | 99.2 | 96.6 | 89 | 90.1 | 103 | 98.6 | 99.5 | 98.8 | 96.3 | 105 | 99.8 | 94.2 | 99.7 | 98.5 | > 10 | > 10 | > 10 | > 10 | 0 | 0.3 | 0 | 0 | – | – | – | – | – | – | –
COc1cc2nccc(Oc3ccc(NC(=O)NC4CC4)c(Cl)c3)c2cc1C(N)=O [lenvatinib] | 106 | 95.5 | 94.7 | 91.2 | 75.6 | 110 | 108 | 105 | 110 | 95.4 | 105 | 101 | 101 | 90.8 | 76.3 | 102 | 106 | 106 | 99.1 | 99.6 | > 10 | > 10 | > 10 | > 10 | 1.4 | 0 | 2 | 0 | 115 | 98.1 | 89.6 | 94.7 | 68.3 | 2.3 | –
FC(F)(F)c1ccc(/C=C/c2nc(COc3ccc(CCCCn4ccnn4)cc3)co2)cc1 [mubritinib] | 97.5 | 109 | 92.5 | 81.6 | 84.9 | 106 | 104 | 78.3 | 56 | 28.1 | 100 | 103 | 93.7 | 93.7 | 97.2 | 103 | 103 | 100 | 103 | 88.4 | > 10 | 0.429 | > 10 | > 10 | 3.1 | 10.8 | 0 | 0 | – | – | – | – | – | – | –
Cc1nc2ccccn2c(=O)c1CCN1CCC(C(=O)c2ccc(F)cc2)CC1 [pirenperone] | 103 | 101 | 99.5 | 90.6 | 106 | 110 | 113 | 108 | 99.2 | 90.2 | 106 | 106 | 103 | 99.2 | 103 | 92.6 | 101 | 95.6 | 100 | 97.2 | > 10 | > 10 | > 10 | > 10 | 0 | 0 | 0 | 0 | – | – | – | – | – | – | –
CN(C)C(=O)c1cc2cnc(Nc3ccc(N4CCNCC4)cn3)nc2n1C1CCCC1 [ribociclib] | 92.1 | 95.9 | 96.1 | 95 | 90.3 | 95.1 | 101 | 87.5 | 78 | 71.8 | 92.8 | 96.9 | 92.7 | 98.4 | 90.4 | 95.5 | 98.8 | 98 | 94.4 | 84 | > 10 | – | > 10 | > 10 | 0 | 4.5 | 0 | 0.6 | 99.7 | 90.3 | 94 | 95.3 | 73.1 | 1.8 | –
